Legend:
aged C57BL6/J mice [1] = test: 2-PMPA treatment of aged C57BL6/J mice: muscle function, muscle mass, frailty, survival, plasma cytokines; assay type: in vivo
Procedure: To determine whether 2-PMPA treatment could delay muscle function loss in aged animals, 15-month old C57BL6/J mice were treated with 100 mg/kg of 2-PMPA IP daily for 5 months and monthly body weight, grip strength, compound muscle action potential (CMAP), open field behavior, end stage muscle weights and survival were monitored.
After 5 months of treatment, 2-PMPA treated animals were moving more in the open field apparatus.

aged C57BL6/J mice [2] = test: as above; assay type: in vivo; conditions: 15-month old WT mice, 100 mg/kg, 5 days per week for 5 months, vs vehicle
[3] = 20 weeks of 2-PMPA treatment, plasma

SMILES: O=C(O)CCC(CP(=O)(O)O)C(=O)O (stereo not shown) [Compound 2-PMPA, 2-(phosphonomethyl) pentanedioic acid]
- calf muscle area measured by MRI (aged C57BL6/J mice [1]; 2 months on treatment, vs vehicle treated mice): significantly greater
- gastrocnemius muscle weights (aged C57BL6/J mice [1]; 5 months of treatment, vs vehicle treated mice): significantly increased
- survival after 5 months of treatment (aged C57BL6/J mice [1]; 15-month old C57BL6/J mice, 100 mg/kg 2-PMPA IP, 5 months, vehicle 8%): 58%
- median survival exceeding the vehicle mice (aged C57BL6/J mice [1]; 15-month old C57BL6/J mice, 100 mg/kg 2-PMPA, vs vehicle): 106 days
- plasma IFN-gamma (aged C57BL6/J mice [1]; [3]): reduced
- plasma IL-1beta (aged C57BL6/J mice [1]; [3]): reduced
- plasma TNF-alpha (aged C57BL6/J mice [1]; [3]): reduced
- frailty index scores (aged C57BL6/J mice [1]; after 5 months of treatment, vs vehicle-treated mice): significantly reduced
- body weight loss (aged C57BL6/J mice [1]; after 5 months on 2-PMPA therapy, vs vehicle treated mice): significant delay
- gastrocnemius muscle fiber cross sectional area (CSA) (aged C57BL6/J mice [1]; old mice treated with 2-PMPA vs vehicle treated old mice): significantly larger
- compound muscle action potential (CMAP) in the foot muscles (aged C57BL6/J mice [2]): significantly improved
- grip strength (aged C57BL6/J mice [2]): significantly improved
- movement in open field (aged C57BL6/J mice [2]): significantly improved

Reference: patent publication US20250064948A1, “GCPII INHIBITION FOR THE TREATMENT OF SARCOPENIA AND AGING” (The Johns Hopkins University, priority 2022, published 2025)
